{"source": "ChEMBL document CHEMBL1909545", "about": "“Synthesis, biological assay in vitro and molecular docking studies of new Schiff base derivatives as potential urease inhibitors” (Eur J Med Chem, 2011)", "note": "Active and inactive are the calls of the source. No cut-off for these calls is given here."}
{"molecular_target": "Urease (Canavalia ensiformis) (UniProt P07374)", "sequence (P07374 whole entry, looked up)": "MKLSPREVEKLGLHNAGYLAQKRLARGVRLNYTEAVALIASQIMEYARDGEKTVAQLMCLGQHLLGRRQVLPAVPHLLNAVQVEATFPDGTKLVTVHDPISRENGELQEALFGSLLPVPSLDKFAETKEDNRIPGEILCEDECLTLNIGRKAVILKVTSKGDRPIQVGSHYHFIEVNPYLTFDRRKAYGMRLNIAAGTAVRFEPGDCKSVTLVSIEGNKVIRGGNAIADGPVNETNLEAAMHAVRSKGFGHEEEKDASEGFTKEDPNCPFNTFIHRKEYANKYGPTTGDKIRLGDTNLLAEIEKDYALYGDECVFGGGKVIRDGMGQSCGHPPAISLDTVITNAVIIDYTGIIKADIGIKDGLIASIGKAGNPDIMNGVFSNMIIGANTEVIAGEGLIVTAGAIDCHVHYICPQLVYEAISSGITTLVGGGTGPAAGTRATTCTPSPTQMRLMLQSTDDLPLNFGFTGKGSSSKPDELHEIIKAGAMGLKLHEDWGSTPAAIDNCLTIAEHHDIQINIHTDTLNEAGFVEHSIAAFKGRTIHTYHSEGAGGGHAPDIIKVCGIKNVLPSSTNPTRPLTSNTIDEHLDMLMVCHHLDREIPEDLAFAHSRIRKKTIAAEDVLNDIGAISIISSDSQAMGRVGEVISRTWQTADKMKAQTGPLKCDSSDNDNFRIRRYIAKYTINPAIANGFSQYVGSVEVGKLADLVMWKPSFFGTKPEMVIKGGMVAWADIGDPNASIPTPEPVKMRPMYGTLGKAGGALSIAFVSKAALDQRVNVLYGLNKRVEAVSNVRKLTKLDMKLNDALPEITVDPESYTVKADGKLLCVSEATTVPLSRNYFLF", "details": "0.01 to 0.001 uM"}
{"smiles": "N/C(S)=N/N=C/c1cccc([N+](=O)[O-])c1", "inhibition": "Active"}
{"molecular_target": "Urease (Canavalia ensiformis, UniProt P07374)", "sequence (P07374 whole entry)": "as the sequence (P07374 whole entry, looked up) above", "test": "Inhibition of jack bean urease assessed as ammonia production after 30 mins by indophenol method", "details": "not given", "units": {"IC50": "nM", "Ki": "nM"}}
{"smiles": "NC(=S)N/N=C/c1cccc(Cl)c1", "IC50": 670, "Ki": 625}
{"smiles": "COc1ccc(/C=N/NC(N)=S)cc1", "IC50": 887, "Ki": 807}
{"smiles": "NC(=S)N/N=C/c1ccc(O)cc1", "IC50": 682, "Ki": 391}
{"smiles": "COc1cccc(/C=N/NC(N)=S)c1", "IC50": 177, "Ki": 127}
{"smiles": "N/C(S)=N/N=C/c1ccc([N+](=O)[O-])cc1", "IC50": 547, "Ki": 497}
{"smiles": "COc1cc(/C=N/NC(N)=S)cc(OC)c1OC", "IC50": 989, "Ki": 910}
{"smiles": "NC(=S)N/N=C/c1ccc(Br)cc1", "IC50": 707, "Ki": 770}
{"smiles": "COc1cc(/C=N/NC(N)=S)cc(OC)c1O", "IC50": 233, "Ki": 134}
{"smiles": "C/C=C/C=N/NC(N)=S", "IC50": 746, "Ki": 430}
{"smiles": "NC(=S)N/N=C/c1ccc(Cl)cc1", "IC50": 410, "Ki": 398}
{"smiles": "NC(=S)N/N=C/c1ccccc1Cl", "IC50": 215, "Ki": 170}
{"smiles": "NC(=S)N/N=C/c1cccc(O)c1O", "IC50": 220, "Ki": 127}
{"smiles": "NC(N)=S", "note": "[THIOUREA]", "Ki": 19600}
{"smiles": "CN(C)c1ccc(/C=N/NC(N)=S)cc1", "IC50": 127, "Ki": 122}
{"smiles": "N/C(S)=N/N=C/c1cccc(Br)c1", "IC50": 767, "Ki": 670}
{"smiles": "NC(=S)N/N=C/c1ccccc1OCc1ccccc1", "IC50": 263, "Ki": 152}
{"smiles": "NC(=S)N/N=C/C=C/c1ccccc1", "IC50": 457, "Ki": 407}
{"smiles": "COc1ccc(/C=N/NC(N)=S)cc1OCc1ccccc1", "IC50": 330, "Ki": 191}
{"smiles": "N/C(S)=N/N=C/c1cccc([N+](=O)[O-])c1", "IC50": 102, "Ki": 90}
